# Assay results as given in ChEMBL document CHEMBL4184305, “Inhibition of histone lysine methyltransferases G9a and GLP by ejection of structural Zn(II)” (Bioorg Med Chem Lett, 2018).
# Active and inactive are the calls of the source. No cut-off for these calls is given here.
# How the values were obtained:
# [1] = target: T1, Histone-lysine N-methyltransferase EHMT2 (Homo sapiens) (UniProt Q96KQ7); assay: Inhibition of wild type recombinant human histone lysine methyltransferase G9a (913 to 1193 residues) expressed in Escherichia coli Rosetta BL21 DE3 PlysS at 10 uM using ARTKQTARKSTGGKA as substrate preincubated for 5 mins followed by substrate/SAM addition measured after 60 mins by MALDI-TOF MS analysis
# T1 sequence (whole entry): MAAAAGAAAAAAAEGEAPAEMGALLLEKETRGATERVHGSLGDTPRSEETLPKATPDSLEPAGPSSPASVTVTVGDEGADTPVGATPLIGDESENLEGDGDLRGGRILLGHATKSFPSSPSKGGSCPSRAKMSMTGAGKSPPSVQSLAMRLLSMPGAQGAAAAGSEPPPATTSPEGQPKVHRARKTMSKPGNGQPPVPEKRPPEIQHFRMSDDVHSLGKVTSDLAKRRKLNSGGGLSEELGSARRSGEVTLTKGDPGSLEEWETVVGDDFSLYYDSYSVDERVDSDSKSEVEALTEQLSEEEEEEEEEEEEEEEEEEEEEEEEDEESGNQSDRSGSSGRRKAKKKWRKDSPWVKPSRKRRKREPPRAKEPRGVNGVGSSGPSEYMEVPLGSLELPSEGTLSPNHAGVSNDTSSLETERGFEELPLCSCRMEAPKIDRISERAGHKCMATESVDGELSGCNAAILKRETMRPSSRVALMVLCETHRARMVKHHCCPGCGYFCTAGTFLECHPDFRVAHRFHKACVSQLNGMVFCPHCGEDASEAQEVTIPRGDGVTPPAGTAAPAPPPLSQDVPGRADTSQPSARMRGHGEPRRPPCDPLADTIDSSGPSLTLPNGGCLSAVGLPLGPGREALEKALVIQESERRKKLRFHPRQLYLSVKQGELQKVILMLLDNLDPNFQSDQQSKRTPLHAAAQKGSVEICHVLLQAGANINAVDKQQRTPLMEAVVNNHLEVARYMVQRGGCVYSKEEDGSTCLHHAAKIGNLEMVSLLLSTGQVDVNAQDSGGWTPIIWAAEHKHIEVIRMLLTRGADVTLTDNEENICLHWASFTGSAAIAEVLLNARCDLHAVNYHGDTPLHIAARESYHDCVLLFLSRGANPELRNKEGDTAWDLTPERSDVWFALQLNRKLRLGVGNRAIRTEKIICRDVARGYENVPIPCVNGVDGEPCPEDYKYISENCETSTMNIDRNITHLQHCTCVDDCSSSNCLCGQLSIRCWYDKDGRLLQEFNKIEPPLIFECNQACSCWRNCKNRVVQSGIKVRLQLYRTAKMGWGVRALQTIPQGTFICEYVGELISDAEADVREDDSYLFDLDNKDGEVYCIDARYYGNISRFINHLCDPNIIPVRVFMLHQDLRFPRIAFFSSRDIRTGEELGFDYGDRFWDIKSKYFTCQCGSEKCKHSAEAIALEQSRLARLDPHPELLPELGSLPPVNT
# [2] = target: T2, Histone-lysine N-methyltransferase EHMT1 (Homo sapiens) (UniProt Q9H9B1); assay: Induction of wild type recombinant human histone lysine methyltransferase GLP (951 to 1235 residues) protein unfolding at 100 uM by circular dichroism analysis
# T2 sequence (whole entry): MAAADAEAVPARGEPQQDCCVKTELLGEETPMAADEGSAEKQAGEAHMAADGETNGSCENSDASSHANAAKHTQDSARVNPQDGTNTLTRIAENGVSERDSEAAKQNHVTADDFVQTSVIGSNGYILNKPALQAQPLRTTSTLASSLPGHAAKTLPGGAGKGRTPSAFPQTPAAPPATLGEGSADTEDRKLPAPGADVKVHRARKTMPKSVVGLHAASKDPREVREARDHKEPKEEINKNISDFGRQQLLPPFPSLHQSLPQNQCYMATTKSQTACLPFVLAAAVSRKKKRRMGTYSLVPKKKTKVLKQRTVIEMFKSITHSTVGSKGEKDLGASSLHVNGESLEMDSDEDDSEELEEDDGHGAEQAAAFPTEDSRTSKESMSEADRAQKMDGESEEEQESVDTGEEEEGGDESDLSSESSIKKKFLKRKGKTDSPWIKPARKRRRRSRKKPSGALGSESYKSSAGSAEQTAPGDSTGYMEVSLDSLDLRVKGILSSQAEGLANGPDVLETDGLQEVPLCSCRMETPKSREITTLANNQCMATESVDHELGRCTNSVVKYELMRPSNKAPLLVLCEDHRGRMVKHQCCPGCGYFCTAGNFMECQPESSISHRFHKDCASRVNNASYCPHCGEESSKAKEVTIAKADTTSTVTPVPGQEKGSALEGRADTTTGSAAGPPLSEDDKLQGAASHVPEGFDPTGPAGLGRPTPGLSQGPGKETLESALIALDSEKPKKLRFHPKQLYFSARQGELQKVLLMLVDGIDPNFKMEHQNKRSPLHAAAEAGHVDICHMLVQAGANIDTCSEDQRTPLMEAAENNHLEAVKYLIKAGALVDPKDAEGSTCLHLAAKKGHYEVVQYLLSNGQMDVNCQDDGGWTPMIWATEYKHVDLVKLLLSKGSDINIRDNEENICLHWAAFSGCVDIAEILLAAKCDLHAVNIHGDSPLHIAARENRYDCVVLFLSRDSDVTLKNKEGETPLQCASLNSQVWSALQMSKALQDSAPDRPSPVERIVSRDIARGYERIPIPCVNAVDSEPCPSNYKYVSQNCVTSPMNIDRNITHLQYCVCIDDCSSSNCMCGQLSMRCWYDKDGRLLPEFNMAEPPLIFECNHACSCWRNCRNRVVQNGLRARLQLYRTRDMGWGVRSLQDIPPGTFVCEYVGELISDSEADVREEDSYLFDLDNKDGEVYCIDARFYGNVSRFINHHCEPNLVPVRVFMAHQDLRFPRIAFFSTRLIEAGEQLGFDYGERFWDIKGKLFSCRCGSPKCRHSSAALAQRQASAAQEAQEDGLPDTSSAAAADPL
# [3] = target: T2, Histone-lysine N-methyltransferase EHMT1 (Homo sapiens); assay: Inhibition of wild type recombinant human histone lysine methyltransferase GLP (951 to 1235 residues) expressed in Escherichia coli Rosetta BL21 DE3 PlysS assessed as zinc ions ejection from 3 types of Cys9-type Zn fingers at >50 uM after 1 hr by circular dichroism analysis
# [4] = target: T1, Histone-lysine N-methyltransferase EHMT2 (Homo sapiens); assay: Induction of wild type recombinant human histone lysine methyltransferase G9a (913 to 1193 residues) protein unfolding at 100 uM by circular dichroism analysis
# [5] = target: T2, Histone-lysine N-methyltransferase EHMT1 (Homo sapiens); assay: Inhibition of wild type recombinant human histone lysine methyltransferase GLP (951 to 1235 residues) expressed in Escherichia coli Rosetta BL21 DE3 PlysS assessed as zinc ions ejection from Cys4-Zn finger at >25 uM after 1 hr by circular dichroism analysis
# [6] = target: T2, Histone-lysine N-methyltransferase EHMT1 (Homo sapiens); assay: Inhibition of wild type recombinant human histone lysine methyltransferase GLP (951 to 1235 residues) expressed in Escherichia coli Rosetta BL21 DE3 PlysS assessed as zinc ions ejection from 3 types of Cys9-type Zn fingers at >25 uM after 1 hr by circular dichroism analysis
SMILES,inhibition [1],Activity [2],inhibition [3],Activity [4],inhibition [5],inhibition [6]
CCN(CC)C(=S)SSC(=S)N(CC)CC,inactive,Active,Active,Active,–,–
O=c1c2ccccc2[se]n1-c1ccccc1 [EBSELEN],inactive,Active,–,Active,Active,Active
